Assay results taken from ChEMBL document CHEMBL1141774, “Benzopyran, biphenyl, and tetraoxygenated xanthone derivatives from the twigs of Garcinia nigrolineata” (2005).
Values after ≈ are worked out from the molar mass of the structure shown.

Each compound was assayed on Staphylococcus aureus (assay: Antibacterial activity against methicillin-resistant Staphylococcus aureus).
Type: functional

| SMILES | MIC [µg/mL] |
| --- | --- |
| CC(C)=CCc1c(O)cc2oc3c(O)c4c(cc3c(=O)c2c1O)C=CC(C)(C)O4 [LASTIXANTHONE D] | 2 (≈ 5.07 µM) |
| CC(C)=CCc1c(O)cc2oc3c(O)ccc(CCC(C)(C)O)c3c(=O)c2c1O [NIGROLINEAXANTHONE N] | 4 (≈ 10 µM) |
| CC1(C)C=Cc2c(cc(O)c3c(=O)c4cc(O)ccc4oc23)O1 [NIGROLINEAXANTHONE F] | 2 (≈ 6.45 µM) |
